Structures are written as SMILES.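 Interpolation was linear, between the two tested concentrations surrounding the appropriate level; five concentrations were tested over 48 hours in 96-well plates. At the TGI there is no net growth.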 Bounds are passed on as bounds.

What all share (experiment): NCI anticancer screen, dose series, 48 h
The subject of assay [1] is IGROV1 ovarian.
For assay [2], the system named is OVCAR-5 ovarian.
For assay [3], the system named is UO-31 renal.
The test system of assay [4] is SK-MEL-2 melanoma.
The test system of assay [5] is SF-539 CNS.
Assay [6] relates to SW-620 colon.
Assay [7] relates to 786-0 renal.
Assay [8] has as its system OVCAR-4 ovarian.
In assay [9] the test system is DU-145 prostate.
For assay [10], the system named is CCRF-CEM leukemia.
For assay [11], the system named is SNB-75 CNS.
Assay [12] has as its system HCC-2998 colon.
Assay [13] concerns MCF7 breast.

On to `Clc1nc(Nc2nc3ccccc3[nH]2)nc(Cl)c1-c1ccccc1`, for which the TGI was determined as 54.2 µM in assay [1]; 59.6 µM in assay [2]; 42.4 µM in assay [3]; 55.9 µM in assay [4]; 34.6 µM in assay [5]; 35.6 µM in [6]. Besides, the TGI in [7] is 34.6 µM; in assay [8], 32.8 µM; in [9], > 100 µM; in assay [10], 66.5 µM; in assay [11], 39.7 µM.
As to `CCOc1ncnc2ccc(Cl)c(I)c12`, the TGI was > 100 µM in assay [1]; > 100 µM in assay [2]; 75.5 µM in assay [3]; > 100 µM in assay [4]; > 100 µM in assay [6]; > 100 µM in [7]. The TGI in assay [8], in assay [12] and in assay [10] was > 100 µM in each case.
In the case of `CC(C)(C)OC(=O)N1CCC(NC(=O)NC2CCN(C(=O)OC(C)(C)C)CC2)CC1`, the TGI in assay [1], in [13], in [2], in [3], in [4] and in assay [5] was > 100 µM throughout. Further, the TGI in [6], in [7], in [8], in [12], in assay [10] and in assay [11] was > 100 µM throughout.
Turning to `C=CC(C)(C)n1cc(C2=C(O)C(=O)C(c3c(CC=C(C)C)[nH]c4ccccc34)=C(O)C2=O)c2ccccc21`, the TGI in assay [1] worked out at 2.45 µM; in [2], 10.1 µM; in [3] it was 1.9 µM; in [4], 3.41 µM; in assay [6], 13.5 µM; in [7], 6.97 µM. Besides, the TGI in assay [8] worked out at 11.8 µM; in assay [9] it was 5.46 µM; in assay [12], 2.33 µM; in assay [10], 8.96 µM; in assay [11], 4.1 µM.
Take `COc1cc(OC)cc(C(=O)Cc2c(C(=O)c3ccccc3)c3ccccc3n2C(=O)c2ccccc2)c1`: the TGI is > 100 µM in assay [1]; > 100 µM in assay [2]; > 100 µM in assay [3]; 65.9 µM in assay [4]; > 100 µM in assay [5]; > 100 µM in assay [6]. In addition, the TGI in assay [7], in [8], in assay [12], in assay [10] and in assay [11] was > 100 µM in each case.
For the compound `COc1ccc(NS(=O)(=O)c2ccc(N=C3C=C(Nc4ccc(S(=O)(=O)Nc5ccc(OC)nn5)cc4)C(=O)c4ccccc43)cc2)nn1`, the TGI was determined as 45.7 µM in assay [1]; 34.1 µM in [2]; 37.8 µM in assay [3]; 33.2 µM in assay [4]; 31.6 µM in assay [5]; 32.9 µM in assay [6]. Further, the TGI was 31.7 µM in [7]; 50.4 µM in [8]; 34.1 µM in assay [12]; > 100 µM in assay [10]; 35.1 µM in assay [11].
Regarding `C[C@H](CO)C1=CC(C#C[Si](C)(C)C)N(C(=O)Oc2ccccc2)c2ccccc21` (some centres undefined), the TGI in assay [1] is 29.9 µM; in assay [2], 30.5 µM; in assay [3] it was 21.4 µM; in assay [4] it was 30.2 µM; in [5], 33.9 µM; in [6] it was > 100 µM. For the same compound, the TGI is 27.2 µM in [7]; 21.8 µM in assay [8]; 31.7 µM in assay [9]; 30.6 µM in [12]; 53.1 µM in [10]; 23 µM in assay [11].
Regarding `CCOC(=O)C(=O)C(/C(=N/N(C)C)C(=O)Nc1ccc(C)cc1C)c1nc2ccccc2[nH]c1=O` (centres undefined), the TGI in assay [1], in [13], in [2], in [3], in assay [4] and in [5] was > 100 µM in each case. The TGI in [6], in assay [7], in assay [8], in assay [12], in assay [10] and in assay [11] was > 100 µM in each case.
Regarding `CCCCC(N)CSSCC(N)CCCC` (centres undefined), the TGI is > 100 µM in assay [1]; 38.1 µM in [2]; 47.1 µM in assay [3]; 36.7 µM in assay [4]; 47.8 µM in assay [5]; 58 µM in assay [6]. The TGI in [7] was 32.8 µM; in assay [8], 32.6 µM; in [12], 35.4 µM; in assay [10], 64.2 µM; in [11], > 100 µM.
`O=C(c1cccc2cc(O)ccc12)c1cn(CCN2CCOCC2)c2ccccc12`: the TGI in [1] was 43.4 µM; in assay [13] it was 66.8 µM; in assay [2], 73.5 µM; in [3] it was 71.4 µM; in assay [4], 25 µM; in assay [5], > 100 µM. In addition, the TGI is > 100 µM in assay [6], 42.3 µM in assay [7], 73 µM in [9] and 34.4 µM in [10].
`Cn1cc2ccccc2c1-c1nc(F)nc(Nc2ccc(N)cc2)n1`: the TGI turned out to be 28.5 µM in assay [1]; 61.9 µM in assay [2]; 53.8 µM in [3]; 30.1 µM in [4]; 35.1 µM in assay [5]; 35 µM in [6]. Moreover, the TGI stood at 64 µM in assay [7]; 64.3 µM in assay [8]; 32.1 µM in assay [12]; 67.5 µM in assay [10]; 42.9 µM in [11].
In the case of `N#Cc1c2ccc([N+](=O)[O-])cc2c(=O)n2c1sc1ccccc12`, the TGI was 72.7 µM in [3]; 53.6 µM in [4]; > 100 µM in [6]; > 100 µM in assay [7]; 98.8 µM in assay [8]; > 100 µM in [9]. Also, the TGI in [12] is 38.7 µM; in assay [10], 34.4 µM; in [11], > 100 µM.
For the compound `NS(=O)(=O)c1ccc(N2C(=O)C(=O)N(c3ccccc3)C2=S)cc1`, the TGI in [1], in assay [2], in [3], in [4], in assay [5] and in assay [6] was > 100 µM each time. Further, the TGI in assay [7], in assay [8], in assay [9], in assay [12], in [10] and in assay [11] was > 100 µM in each case.
For `CC(C)=CCC/C(C)=C/CC/C(C)=C/C1CCC(=O)C1(C)C` (centres undefined), the TGI came to 39.4 µM in assay [1]; 39.7 µM in assay [2]; 31.7 µM in [3]; 34.1 µM in assay [4]; 38.9 µM in assay [5]; 32.2 µM in [7]. In addition, the TGI came out at 66 µM in [8], 38.2 µM in [12], 35.4 µM in assay [10] and 81.9 µM in assay [11].
As to `CC1(C)/C(=N\Nc2ccc([N+](=O)[O-])cc2[N+](=O)[O-])C2CCC1C2` (centres undefined), the TGI in [1], in assay [13], in [2], in [3], in [4] and in [6] was > 100 µM each time. Also, the TGI in assay [7] was > 100 µM; in assay [8] it was > 100 µM; in assay [9], > 100 µM; in [11], 65.8 µM.
With `C=C(C1=CC(=O)C(C)(C)O1)[C@@H]1CC=C([C@@H]2CC[C@H]3[C@@]2(C)CC[C@H]2C(C)(C)C(=O)[C@H](OC(=O)CC(C)(O)CC(=O)O)C[C@]32C)[C@H](O)O1` (some centres undefined), the TGI amounted to 26.3 µM in assay [1]; 20.9 µM in assay [13]; 26.5 µM in [2]; 26.3 µM in [3]; 26.7 µM in [4]; 24.7 µM in [5]. In addition, the TGI in assay [6] came out at 25.4 µM; in assay [7] it was 24.4 µM; in [9], 45.6 µM; in assay [10], 6.12 µM.
`O=C1/C(=C\c2cccc(Oc3ccccc3)c2)SC(c2ccccc2)N1c1cccc(Cl)c1` (centres undefined): the TGI in assay [2], in assay [3], in [4], in [6], in [7] and in [8] was > 100 µM throughout. The TGI in assay [9] and in assay [12] was > 100 µM in each case.
On to `Cc1ccc2c(=O)c(C(=O)NNC(=S)NC3CCCCC3)c[nH]c2n1`, for which the TGI in [1], in assay [13], in [2], in assay [3], in assay [4] and in assay [6] was > 100 µM in each case. The TGI in assay [7], in [8], in [9] and in assay [10] was > 100 µM each time.
Turning to `Nc1nc(Cc2ccccc2)nc(Cc2ccccc2)c1-c1ccccc1`, the TGI in assay [1] is > 100 µM; in assay [2], > 100 µM; in assay [3], > 100 µM; in assay [4] it was 29.8 µM; in assay [6], > 100 µM; in [7], 70.5 µM. Moreover, the TGI is > 100 µM in assay [8], 56.1 µM in assay [9] and > 100 µM in assay [12].

(Values after PubChem BioAssay (NCI).)
